In the supplement of paper PMC10307832:

Assays:
Assay in all cases: relative viability (nuclei count vs DMSO), 5 days (fraction); higher = more cells survive
Navitoclax = compound: CC1(C)CCC(c2ccc(Cl)cc2)=C(CN2CCN(c3ccc(C(=O)NS(=O)(=O)c4ccc(N[C@H](CCN5CCOCC5)CSc5ccccc5)c(S(=O)(=O)C(F)(F)F)c4)cc3)CC2)C1 [Navitoclax]
Procedure, shortened: (§1)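 Five library-drug doses spaced by √10 were pinned onto vehicle-anchored 1536-well plates of lung cancer cell lines that had been kept overnight at 37 °C. Cells went 5 days without medium change, then were fixed, permeabilised and Hoechst-stained together, imaged at 4× and counted by MetaXpress. Viability is the ratio of treated-well to vehicle-well nuclei, taken as a median over plates. Plates required control CV below 25% and at least one doubling.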

[1] = compound: O=C(O)c1ccc(-c2c[nH]c3ncc(-c4ccccc4)cc23)cc1C1CCCC1
Procedure, shortened: as §1

AZD7762 = compound: NC(=O)Nc1cc(-c2cccc(F)c2)sc1C(=O)N[C@H]1CCCNC1 [AZD7762]
Procedure, shortened: as §1

XAV939 = compound: Oc1nc(-c2ccc(C(F)(F)F)cc2)nc2c1CSCC2 [XAV939]
Procedure, shortened: as §1

C-75 = compound: CCCCCCCC[C@H]1[C@@H](C(=C)C(=O)O1)C(=O)O [C-75]
Procedure, shortened: as §1

| Cell Line | relative viability (Navitoclax; 0.005 µM) | relative viability (Navitoclax; 0.01581 µM) | relative viability (Navitoclax; 0.05 µM) | relative viability (Navitoclax; 0.1581 µM) | relative viability (Navitoclax; 0.5 µM) | relative viability (Navitoclax; 0.5 µM, anchor plate) | relative viability ([1]; 0.04 µM) | relative viability ([1]; 0.1265 µM) | relative viability ([1]; 0.4 µM) | relative viability ([1]; 1.265 µM) | relative viability (AZD7762; 0.01 µM) | relative viability (AZD7762; 0.03162 µM) | relative viability (AZD7762; 0.1 µM) | relative viability (AZD7762; 0.2 µM, anchor plate) | relative viability (AZD7762; 0.3162 µM) | relative viability (AZD7762; 1 µM) | relative viability (XAV939; 0.08 µM) | relative viability (XAV939; 0.253 µM) | relative viability (XAV939; 0.8 µM) | relative viability (XAV939; 2.53 µM) | relative viability (C-75; 0.08 µM) | relative viability (C-75; 0.253 µM) | relative viability (C-75; 0.8 µM) | relative viability (C-75; 2.53 µM) | relative viability (C-75; 8 µM) |
| --- | --- | --- | --- | --- | --- | --- | --- | --- | --- | --- | --- | --- | --- | --- | --- | --- | --- | --- | --- | --- | --- | --- | --- | --- | --- |
| A-427 | 1.02 | 0.977 | 0.959 | 1 | 1.03 | 0.968 | 1.03 | 1.11 | 0.998 | 0.888 | 0.988 | 1.02 | 1.03 | 0.784 | 0.852 | 0.419 | 1.12 | 0.936 | 0.933 | 0.897 | 1.05 | 0.938 | 0.948 | 0.847 | 0.82 |
| NCI-H1651 | 0.989 | 1 | 0.802 | 0.942 | 1 | 1.06 | 0.931 | 1.08 | 0.968 | 0.784 | 1.02 | 0.98 | 1.03 | 0.495 | 0.956 | 0.531 | 1 | 0.85 | 0.943 | 1 | 0.956 | 1.02 | 0.952 | 0.935 | 0.969 |
| LU99A | 0.916 | 1.13 | 0.933 | 1.03 | 1.04 | 0.839 | 0.958 | 0.941 | 0.894 | 0.65 | 0.943 | 1.1 | 0.995 | 0.356 | 0.986 | 0.414 | 0.78 | 0.827 | 0.939 | 1.02 | 1 | 0.928 | 0.97 | 0.834 | 0.858 |
| NCI-H522 | 0.841 | 1.12 | 1.03 | 0.912 | 0.978 | – | 0.851 | 1.13 | 0.83 | 0.945 | 1.02 | 1.15 | 0.955 | 0.841 | 0.939 | 0.839 | 0.962 | 0.901 | 0.983 | 0.881 | 0.97 | 0.898 | 1.02 | 0.721 | 0.873 |
| LXF-289 | 0.974 | 0.989 | 0.884 | 0.99 | 0.972 | 0.949 | 0.969 | 0.967 | 0.876 | 0.703 | 0.963 | 1.02 | 1.05 | 1.1 | 0.979 | 1.07 | 1 | 0.94 | 0.998 | 1.03 | 0.958 | 0.95 | 0.983 | 0.862 | 1.02 |
| HCC-366 | 1.04 | 1.05 | 0.728 | 0.968 | 1.07 | 1.03 | 1 | 1.02 | 0.998 | 0.971 | 0.981 | 1.03 | 0.998 | 0.289 | 0.886 | 0.393 | 0.971 | 0.9 | 1 | 1.01 | 0.974 | 1.11 | 0.975 | 0.763 | 0.982 |
| COR-L 105 | 0.808 | 1.21 | 0.965 | 0.98 | 0.922 | 0.841 | 1 | 0.951 | 0.945 | 0.88 | 0.949 | 0.918 | 0.822 | – | 0.613 | 0.502 | 1.03 | 0.857 | 0.78 | 0.6 | 0.939 | 0.876 | 0.877 | 0.755 | 0.801 |
| NCI-H1944 | 0.942 | 1.09 | 0.766 | 0.913 | 0.892 | 1.05 | 0.92 | 1.07 | 0.907 | 0.874 | 1 | 1 | 1.1 | 0.566 | 0.967 | 0.605 | 1.12 | 0.907 | 0.898 | 0.87 | 0.871 | 0.909 | 0.929 | – | 0.9 |
| EKVX | 1.03 | 1.28 | 0.87 | 0.969 | 0.915 | 0.954 | 0.962 | 1.14 | 1.01 | 0.865 | 0.947 | 1.03 | 0.929 | 0.696 | 0.962 | 0.8 | 1.04 | 0.852 | 0.833 | 0.694 | 0.971 | 0.967 | 0.847 | – | 1.02 |
| NCI-H2170 | 1.02 | 1.06 | 1.06 | 0.935 | 0.748 | 0.636 | 1.01 | 1 | 0.937 | 0.904 | 1 | 1.01 | 1.02 | 0.858 | 0.989 | 0.972 | 0.937 | 0.886 | 0.939 | 0.785 | 0.984 | 0.94 | 0.943 | 0.913 | 0.954 |
| NCI-H2342 | 1.01 | 0.999 | 0.938 | 0.961 | 1.01 | – | 0.943 | 0.985 | 0.979 | 1.1 | 0.903 | 1.1 | 0.983 | 0.514 | 0.997 | 1.04 | 1.04 | 0.794 | 0.781 | 0.508 | 0.924 | 0.988 | 0.833 | 0.857 | 1.04 |
| NCI-H1395 | 0.998 | 0.943 | 0.922 | 0.905 | 1 | 1.25 | 0.94 | 1.01 | 0.893 | 0.837 | 0.931 | 1.11 | 1.06 | 0.398 | 0.461 | 0.408 | 0.918 | 0.903 | 0.88 | 0.972 | 0.828 | 0.893 | 0.794 | 0.788 | 1.04 |
| NCI-H1793 | 0.977 | 1.09 | – | 0.866 | 0.702 | 0.491 | 0.91 | 1.28 | 0.9 | 0.956 | 1.02 | 1.1 | 0.961 | 0.538 | 0.924 | 0.555 | 1.12 | 0.748 | 1.01 | 0.863 | 0.822 | 1.1 | 0.795 | 0.768 | 1.05 |
| NCI-H1563 | 0.973 | 1.04 | 0.9 | 1.04 | 1.28 | – | 1.07 | 1.03 | 0.958 | 1.01 | 1.02 | 1.01 | 0.993 | – | 1.05 | 0.914 | 0.978 | 0.987 | 0.822 | 0.698 | 1.06 | 1.06 | 0.884 | 0.92 | 1.08 |
| NCI-H1993 | 0.925 | 1.23 | 0.913 | 0.947 | 0.949 | 1.04 | 0.979 | 1.02 | 0.946 | 0.877 | 0.96 | 0.984 | 0.957 | 0.828 | 1.11 | 0.819 | 0.841 | 0.693 | 0.782 | 0.827 | 1.09 | 1.07 | 0.888 | 0.855 | 0.903 |
